According to article PMC7570665 (2020):

How the values were obtained:
[1] = tested on: T10-7.t5 (XNA, aptamer, all-TNA (alpha-L-threose nucleic acid, 3'-2'); 7-deaza-7-phenyl-guanine in place of every guanine) CTTTTAAGAACCGGACGAACTAGAATATTATATTTT; test: competitive equilibrium filtration; conditions: 5 mM MgCl2, 300 mM NaCl; 20 mM Tris-HCl pH 7.6; displaces γ-32P-ATP; 4 °C in methods, 24 °C in legend; highest concentration not stated
[2] = tested on: T10-7.t5 (XNA, aptamer, all-TNA (alpha-L-threose nucleic acid, 3'-2'); 7-deaza-7-phenyl-guanine in place of every guanine) CTTTTAAGAACCGGACGAACTAGAATATTATATTTT; test: equilibrium filtration, γ-32P-ATP, Hill fit; conditions: 5 mM MgCl2, 300 mM NaCl; 20 mM Tris-HCl pH 7.6; 4 °C in methods, 24 °C in legend; apparent

Kd [1] [µM] | KD [2] [µM] | Structure (SMILES)
> 2000 |  | Nc1ccn([C@@H]2O[C@H](COP(=O)(O)OP(=O)(O)OP(=O)(O)O)[C@@H](O)[C@H]2O)c(=O)n1
> 2000 |  | Nc1nc2c(ncn2[C@@H]2O[C@H](COP(=O)(O)OP(=O)(O)OP(=O)(O)O)[C@@H](O)[C@H]2O)c(=O)[nH]1
 | 22 ± 5 | Nc1ncnc2c1ncn2[C@@H]1O[C@H](COP(=O)(O)OP(=O)(O)OP(=O)(O)O)[C@@H](O)[C@H]1O
> 2000 |  | O=c1ccn([C@@H]2O[C@H](COP(=O)(O)OP(=O)(O)OP(=O)(O)O)[C@@H](O)[C@H]2O)c(=O)[nH]1
